Columns and labels:
Sprague-Dawley rats [1] = assay: animal or person; assay type: in vivo; settings: rats; for ED50: Rattus norvegicus, LORR, up and down method, tail vein, class symbols, read-out: ED50
Description: Evaluating indicator: The end point of anesthesia: the disappearance of forepaw righting reflex (lorr) was used as the end point of anesthesia; General anesthesia effect: the disappearance of forepaw righting reflex in rats lasting for 30 seconds is taken as the index of general anesthesia effect; Anesthesia recovery index: the recovery of rat forepaw righting reflex was used as the index of anesthesia recovery.

Sprague-Dawley rats [2] = assay type: in vivo; settings: tail vein
Sprague-Dawley rats [3] = assay: Pharmacological effect and adverse reactions under the equivalent dose (2ED50), Group D compounds; assay type: in vivo; settings: for Righting reflex duration / Sedation duration / Onset time: 2ED50, tail vein, rats, n=8; for Adverse reaction: Convulsions / Adverse reaction: Cough, broken-winded / Adverse reaction: Euphoria / Adverse reaction: Four limbs rigidity / Adverse reaction: Red urine / Adverse reaction: Slower breathing, Tetany convulsion / Adverse reaction: Systemic stiffness, Convulsions, Opisthotonus / Adverse reaction: Tongue stretching / Adverse reaction: Tremor: equivalent dose (2 × ED50), number of rats of n = 8
Description: Evaluation index: onset time: from the completion of drug injection to the disappearance of forepaw righting reflex in rats; Duration of anesthesia: the time from the disappearance of rat forepaw righting reflex to the recovery of rat forepaw righting reflex; Recovery time of anesthesia: the time from the […] to complete recovery;

SD rats = settings: for After the infusion is stopped: Righting reflex recovery time / Recovery time after stopping infusion: after 1 hour continuous infusion at 2 times the MIR; for After the infusion is stopped: Righting reflex recovery time / Recovery time after stopping infusion / Sedation onset time: SD rats; for Sedation onset time: continuous tail vein infusion at 2 times the MIR
Protocol: Experimental Methods: Adult male SD rats with body weight ranging from 250 g to 350 g were selected for continuous infusion test.
Evaluation indexes: the time from the beginning of continuous infusion to the […] of sedation in rats; the time from the cessation of infusion to the restoration of the forepaw turning reflex after 1 hour of continuous infusion; the time from the cessation of infusion to the complete restoration of rats after 1 hour of continuous infusion.

[4] = continuous infusion 2 x MIR 1 hour, rats affected/rats

Structure (SMILES) | ED50 (Sprague-Dawley rats [1]) [mg/kg] | Approximate therapeutic index (Sprague-Dawley rats [1]) | Minimal lethal dose (Sprague-Dawley rats [2]) [mg/kg] | Righting reflex duration (Sprague-Dawley rats [3]) [min] | Sedation duration (Sprague-Dawley rats [3]) [min] | Adverse reaction: Convulsions (Sprague-Dawley rats [3]) | Adverse reaction: Cough, broken-winded (Sprague-Dawley rats [3]) | Adverse reaction: Euphoria (Sprague-Dawley rats [3]) | Adverse reaction: Four limbs rigidity (Sprague-Dawley rats [3]) | Adverse reaction: Red urine (Sprague-Dawley rats [3]) | Adverse reaction: Slower breathing, Tetany convulsion (Sprague-Dawley rats [3]) | Adverse reaction: Systemic stiffness, Convulsions, Opisthotonus (Sprague-Dawley rats [3]) | Adverse reaction: Tongue stretching (Sprague-Dawley rats [3]) | Adverse reaction: Tremor (Sprague-Dawley rats [3]) | After the infusion is stopped: Righting reflex recovery time (SD rats) [min] | Recovery time after stopping infusion (SD rats) [min] | Types and incidence of adverse reactions: Red urine (SD rats; [4]) | Types and incidence of adverse reactions: Tremor (SD rats; [4]) | Sedation onset time (SD rats) [min] | Onset time (Sprague-Dawley rats [3]; unit min) [min] | also measured
COC(OC)(OC)C(=O)c1cncn1[C@H](C)c1ccccc1 [Compound D77] | 0.04 to 0.5 | >21.0 | >1.4 | 1.43 ± 0.22 | 3.68 ± 0.56 | 0 | 0 | 0 | 0 | 8 | 0 | 8 | 1 | 0 | 12 to 16 | 20 to 30 | Red urine(6/6), Tongue | stretching(3/6), Tremor(3/6) | <5 |  | Onset time (Sprague-Dawley rats [3]; unit s): <0.5 min; Types and incidence of adverse reactions: Tongue stretching (SD rats; [4]): stretching(3/6), Tremor(3/6)
COC(OC)(OC)C(=O)c1cc(F)nn1[C@H](C)c1ccccc1 [Compound D17] | 0.5 to 1 | >4.5 | >11.9 | 0.86 ± 0.23 | 5.48 ± 0.50 | 0 | 0 | 0 | 1 | 8 | 0 | 0 | 0 | 0 | 15 to 22 | 25 to 35 | 6/6 | 1/6 | <5 | <1 | 
COC(OC)(OC)C(=O)c1ccnn1[C@H](C)c1ccccc1 [Compound D1] | 0.5 to 1 | >8.4 | >11.2 | 1.18 ± 0.43 | 7.96 ± 2.14 | 0 | 0 | 0 | 0 | 8 | 0 | 0 | 1 | 0 | 18 to 24 | 35 to 45 | 6/6 | 2/6 | <5 | <1 | Types and incidence of adverse reactions: Tongue stretching (SD rats; [4]): Tongue stretching(2/6)
CCOC(=O)C(=O)c1cncn1[C@H](C)c1ccccc1 [Compound D81] | 0.5 to 1 | >15.2 | >12.6 | 1.35 ± 0.12 | 4.87 ± 0.39 | 0 | 0 | 0 | 1 | 8 | 0 | 0 | 0 | 1 | 13 to 14 | 15 to 25 | 6/6 | 2/6 | <5 | <1 | Types and incidence of adverse reactions: the four limbs rigidity (SD rats; [4]): the four limbs rigidity(2/6)

Reference: patent publication US12570612B2, “Substituted nitrogen heterocyclic compound and anesthetic effect thereof” (priority 2019, dated 2026)
